Results reported in patent publication US5990277A, “Semipeptoid farnesyl protein transferase inhibitors and analogs thereof” (Yissum Research Development Company of the Herbrew …, priority 1996, dated 1999).
Like-named read-outs stand apart in the source and are kept apart here. Square brackets hold non-standard residues; d marks the D form. Ends that are not written are not given here. Peptide text beside a SMILES is read from it. * marks the point of attachment. N(3,4-(MeO)2phenethyl)Gly = COc1ccc(CCNCC(=O)O)cc1OC; Farnesyl = CC(C)=CCC/C(C)=C/CC/C(C)=C/C*; Gly(NCH2CH2Ph) = O=C(O)CNCCc1ccccc1; Gly(N-cHex) = O=C(O)CNC1CCCCC1; NMeV = CN[C@H](C(=O)O)C(C)C; N(iPr)Gly = CC(C)NCC(=O)O; Nphe = O=C(O)CNCc1ccccc1; Nleu = CC(C)CNCC(=O)O

Columns and labels:
[1] = molecular target: T1, Farnesyl protein transferase (FT) (Bos taurus, UniProt P29702+P49355); test: Farnesyl protein transferase (FT) inhibition assay; type: biochemical, bovine; conditions: for IC50: partially purified FT, Gst-HRas substrate
T1 construct: Partial purification of FT from bovine brain; from tissue; host or cells: bovine brain
Description: FT activity was quantified by measuring the incorporation of [^3 H]farnesyl from all-trans-[^3 H]farnesylpyrophosphate into purified Gst-HRas.
Partial purification of FT from bovine brain was performed essentially as described by Reiss at al. (Reiss et al, Cell, 1990, 62: 81), except that a fractogel DEAE column (150×16 mm, Merck) was used for the ion exchange chromatagraphy step. GST-HRas expression vector was constructed by cloning the Hras gene into a pGEX-1 vector, and expressed in E. coli strain TG1. The protein was purified using glutathione agarose (Sigma USA). FT inhibition assays were run in 96-well dishes in a reaction volume of […]. The final reaction mixture contained 5 mM GST-HRas, 0.9 mM [^3 H]farnesylpyrophosphate 20,000 dmp/pmol (NEN-Dupont), 1 mg of partially purified FT, 5 mM MgCl2, 3 mM ZnCl2, 40 mM TRIS.HCl pH 7.5, 60 mM NaCl, 1 mM DTT, 0.2 mM Glutathione, 0.03% Octyl-b-D-glucopyranoside, and serial dilutions of inhibitor.
Following incubation at 37° C. for 30 minutes the reactions were stopped by adding 100 ml of 4% sodium dodecyl sulfate (SDS) followed by 100 ml of 30% trichloroacetic acid (TCA). Plates were incubated for 100 minutes on ice, and the precipitates were filtered using a Millipore milliblot™-system (Millipore Corp., Bedford Mass.) with GF/C membranes. The wells were washed twice with 200 ml of 2% SDS/6% TCA and 7 times with […] of 6% TCA. The filters were punched into 4 ml vials and dried at 70° C. for 10 minutes. 3 ml of scintillation fluid was added and radioactivity was monitored by scintillation counting. IC50 values were resolved from dose-response curves of percent control versus log drug concentration, using the Regression program (Blackwell, UK). Each compound was tested 2-4 times.

[2] = molecular target: T2, Geranylgeranyl transferase-I (GGT) (Bos taurus, UniProt P29702+Q5EAD5); test: Geranylgeranyl transferase-I (GGT) inhibition assay; type: biochemical, bovine; conditions: partially purified GGT, Gst-HRas-CVLL substrate
T2 construct: GGT was partially purified from bovine brain; from tissue; host or cells: bovine brain cytosol
Description: The second assay estimated the selectivity of the inhibitor towards FT over a related enzyme, geranylgeranyl-protein-transferase-I (GGT), which transfers a C20 -isoprenoid to a thiol group of cysteine of a C-terminal CAAL (SEQ ID NO:17) peptide sequence derived from geranylgeranylpyrophosphate. Geranylgeranylation of normal cellular proteins is 5-10 times more common than farnesylation (Gibbs et al., Cell, 1994, 77: 175; Gibbs, Cell, 1991, 65: 1; Maltese,. FASEB J., 1990, 4: 3319).
A selective FT-inhibitor is considered to cause fewer cytotoxic effects than a nonselective inhibitor of both FT and GGT. GGT activity, for the partially purified GGT enzyme (Moores et al., J. Biol. Chem., 1991, 266: 14603), was quantified by measuring the incorporation of [^3 H]geranylgeranyl from all trans [^3 H]geranylgeranylpyrophosphate, into purified Gst-HRas-CVLL.
GGT was partially purified from bovine brain. Cytosol was prepared and GGT was isolated using a fractogel DEAE column (150×16 mm, Merck) with NaCl gradient, as for FT purification (see Example 15 above). Fractions containing the GGT activity were pooled and stored at -70° C. Hras gene was point mutated using an oligonucleotide directed in vitro mutagenesis system (Amersham version 2.1). The mutated Hras gene was cloned into the GST--frame of a pGEX-1 expression vector, expressed in E. coli strain TG1, and a fusion protein Gst-HRas-CVLL (SEQ ID NO:22) was purified on glutathione agarose.

FT = molecular target: T3, FT (Bos taurus, UniProt P29702+P49355); test: Inhibitor farnesylation assay (alternative substrate); type: biochemical, bovine; conditions: incubated with FT and [3H]farnesylpyrophosphate in the absence of Ras
T3 construct: Partial purification of FT from bovine brain; from tissue; host or cells: bovine brain
Description: The third assay checked whether the inhibitor itself undergoes farnesylation. For this purpose, the inhibitor was incubated with the FT enzyme and [^3 H]farnesylpyrophosphate in the absence of Ras.
For examination whether the inhibitors undergo farnesylation a previously described procedure (Goldstein et al., J. Biol. Chem., 1991, 266: 15575) was used. Each reaction mixture contained the following components in a final volume of […]: 40 mM TRIS.HCl pH 7.5, 67 mM NaCl, 5 mM MgCl2, 7 mM ZnCl2, 1 mM DTT, 0.07% (v/v) octyl-b-D-glucopyranoside, 20 pmol of [^3 H]farnesylpyrophosphate 45,000 dpm/pmol, 4 mM peptide or peptoid, and 1 mg of partially purified FT. After incubation at 37° C. for 30 minutes, the entire reaction mixture was spotted onto an aluminum backed Silica Gel thin layer sheet (20×20 cm, Merck), and placed in a tank containing n-propyl-alcohol/ammonium hydroxide/water (6:3:1, v/v/v). The chromatogram was run for 4 hours, sprayed with EN^3 HANCE (Dupont) and exposed to RX film (FUJI) for 4 days at -70° C.

[3] = molecular target: farnesyl protein transferase (Homo sapiens, UniProt P49354+P49356); conditions: cited from earlier work; for farnesyl protein transferase inhibitory potency in vitro: literature
[4] = system: Ras processing in cells transformed with v-ras; conditions: cited from earlier work
[5] = system: Ras processing in v-Ha-ras transformed NIH3T3 cells; test: Protein processing assay in intact cells: Ras; type: cell-based; conditions: western blot
Description: Its selectivity towards FT as compared to GGT in whole cells, was determined by its relative inhibitory effects on Ras farnesylation and on Rap1A/Krev geranylgeranylation (Casey, J. Lipid Res. 1992, 33, 1731-1740; Cox et al., Curr. Opin. Cell Biol. 1992, 4, 1008-1016; Garcia et al., J. Biol. Chem. 1993, 268, 18415-18418; and Vogt et al., J. Biol. Chem. 1995, 270, 660-664), respectively. v-Ha-ras transformed NIH3T3 cells were incubated with lovastatin or increasing concentrations of the inhibitor. Cells were lysed and the processed and unprocessed forms of Ras or Rap1A were separated by SDS-PAGE and immunoblotted with anti-Ras or anti-Rap1A antibodies, respectively. Lovastatin is a compound which blocks the processing of isoprenylated proteins in cells by inhibiting an early step of the isoprenoid biosynthetic pathway, and therefore serves as a positive control for the inhibition of both geraylgeranylation and farnesylation (Kohl et al., Science 1993, 260, 1934-1937; Garcia et al., J. Biol. Chem. 1993, 268, 18415-18418; Vogt et al., J. Biol. Chem. 1995, 270, 660-664).
After 48 hr of incubation, cell extracts were separated on SDS-PAGE and immunoblotted with anti-Ras antibody.
Cells were lysed (Garcia et al., J. Biol. Chem. 1993, 268, 18415-18418) in 1% Nonidet P-40, 5 mM TRIS.HCl pH 8.0, 5 mM EDTA, 1 mM phenylmethylsulfonyl fluoride, 10 mg/ml aprotonin, 10 mg/ml soybean trypsin inhibitor and 313 mg/ml benzamidine. The lysate was separated by centriflgation and the supernatant used as cell extract. Total protein was separated by SDS-PAGE (40 mg/lane) in 15% acrylamide (0.4% bis-acrylamide) gels, transferred onto nitrocellulose (Schleicher & Schuell, optitran BA-S 85) and probed with anti-Ras antibody Y13-259, or monoclonal anti-Rap1A/K-rev antibody (transduction laboratories). The western blots were visualized using an enhanced chemiluminescence (ECL) detection system.

[6] = system: Rap1A/K-rev processing in v-Ha-ras transformed NIH3T3 cells; test: Protein processing assay in intact cells: Rap1A/K-rev; type: cell-based
Description: Its selectivity towards FT as compared to GGT in whole cells, was determined by its relative inhibitory effects on Ras farnesylation and on Rap1A/Krev geranylgeranylation (Casey, J. Lipid Res. 1992, 33, 1731-1740; Cox et al., Curr. Opin. Cell Biol. 1992, 4, 1008-1016; Garcia et al., J. Biol. Chem. 1993, 268, 18415-18418; and Vogt et al., J. Biol. Chem. 1995, 270, 660-664), respectively. v-Ha-ras transformed NIH3T3 cells were incubated with lovastatin or increasing concentrations of the inhibitor. Cells were lysed and the processed and unprocessed forms of Ras or Rap1A were separated by SDS-PAGE and immunoblotted with anti-Ras or anti-Rap1A antibodies, respectively.
To test the selectivity of compound 12 towards FT in whole cells, the post-translational processing of an endogenous geranylgeranylated protein, Rap1A/K-rev, was analyzed.
v-Ha-ras transformed NIH3T3 fibroblasts were treated with 15 mM lovastatin or the indicated concentrations of compound 12 or vehicle (0.25 mM DTT, 0.25% DMSO), for 48 hr. Cells were lysed (Garcia et al., J. Biol. Chem. 1993, 268, 18415-18418) in 1% Nonidet P-40, 5 mM TRIS.HCl pH 8.0, 5 mM EDTA, 1 mM phenylmethylsulfonyl fluoride, 10 mg/ml aprotonin, 10 mg/ml soybean trypsin inhibitor and 313 mg/ml benzamidine. The lysate was separated by centriflgation and the supernatant used as cell extract. […]

IC50 [1] | IC50 [2] | alternative substrate (inhibitor itself farnesylated) (FT) | Molecule | other results
0.32 µM | 30 µM | no | CSCC[C@H](NC(=O)CN(CCc1ccccc1)C(=O)[C@@H](NC(=O)[C@@H](N)CS)C(C)C)C(=O)O [Semipeptoid 2, cysteinyl-valyl-(Nα-phenethyl)glycyl-methionine] (H-CV[Gly(NCH2CH2Ph)]M-OH) | reduction of relative potency versus compound 1 (FT) ([1]; versus compound 1): 3.2 fold
0.1 µM | 40 µM | no | CSCC[C@H](NC(=O)CN(Cc1ccccc1)C(=O)[C@@H](NC(=O)[C@@H](N)CS)C(C)C)C(=O)O [Semipeptoid 1, cysteinyl-valyl-(Nα-benzyl)glycyl-methionine] (H-CV[Nphe]M-OH) | fold more potent than compound 5 (FT) ([1]; versus compound 5): 130 fold; fold more potent than compound 8 (FT) ([1]; versus compound 8): 500 fold
75 µM | 240 µM | no | CSCC[C@H](NC(=O)[C@H](Cc1ccccc1)NC(=O)CN(CC(C)C)C(=O)[C@@H](N)CS)C(=O)O [Semipeptoid 10, cysteinyl-(Nα-isobutyl)glycyl-phenylalanyl-methionine] (H-C[Nleu]FM-OH) | –
4 µM | > 400 µM | no | CSCC[C@H](NC(=O)[C@H](Cc1ccccc1)NC(=O)CN(CCN(C)C)C(=O)[C@@H](N)CS)C(=O)O [Semipeptoid 9, cysteinyl-(Nα(N,N-dimethylaminoethyl))glycyl-phenylalanyl-methionine] | –
3 µM | 40 µM | no | CSCC[C@H](NC(=O)CN(Cc1ccccc1)C(=O)CN(CCN(C)C)C(=O)[C@@H](N)CS)C(=O)O [Semipeptoid 7, cysteinyl-(Nα(N,N-dimethylaminoethyl))glycyl-(Nα-benzyl)glycyl-methionine] | –
13 µM | 190 µM | no | CSCC[C@H](NC(=O)CN(Cc1ccccc1)C(=O)CN(C(=O)[C@@H](N)CS)C(C)C)C(=O)O [Semipeptoid 5, cysteinyl-(Nα-isopropyl)glycyl-(Nα-benzyl)glycyl-methionine] (H-C[N(iPr)Gly][Nphe]M-OH) | –
– | – | – | CC[C@H](C)[C@H](NC[C@@H](NC[C@@H](N)CS)[C@@H](C)CC)C(=O)N[C@@H](CCO)C(=O)O [L-731,735, N-{2(S)-[2(R)-amino-3-mercaptopropylamino]-3(S)-methylpentyl}isoleucyl-homoserine] | farnesyl protein transferase inhibitory potency in vitro [3]: potent and selective inhibitor; effect on Ras processing in cells [4]: no effect on Ras processing
– | – | – | CC[C@H](C)[C@@H](CO[C@@H](Cc1ccccc1)C(=O)N[C@@H](CCS(C)(=O)=O)C(=O)O)NC[C@@H](N)CS [L-739,750] | farnesyl protein transferase inhibitory potency in vitro [3]: potent inhibitor
0.07 µM | 5 µM | no | CSCC[C@H](NC(=O)CN(C(=O)[C@@H](NC(=O)[C@@H](N)CS)C(C)C)C1CCCCC1)C(=O)O [Semipeptoid 4, cysteinyl-valyl-(Nα-cyclohexyl)glycyl-methionine] (H-CV[Gly(N-cHex)]M-OH) | –
– | – | – | CVLS: CAAX tetrapeptide (SEQ ID NO:18); the result concerns its farnesylated form (C(Farnesyl)VLS) | fold less potent as inhibitor: farnesylated peptide versus its corresponding tetrapeptide ([3]; farnesylated form of the peptide): about 13 fold
– | – | – | methyl ester Derivative of cysteinyl-(Nα-methyl)valyl-(Nα-cyclohexyl)glycyl-methionine [Semipeptoid 12] | concentration range of dose dependent shift of Ras towards its unprocessed form ([5]; 48 hr incubation): 1 to 160 mM; IC50 ([5]; 48 hr incubation, read-out: in situ IC50 (shift of Ras towards its unprocessed form)): 10 µM; effect on Rap1A/K-rev processing [6]: not affected
– | – | – | CC[C@H](C)C(=O)O[C@H]1C[C@@H](C)C=C2C=C[C@H](C)[C@H](CC[C@@H]3C[C@@H](O)CC(=O)O3)[C@H]21 [lovastatin, reference compound] | effect on Ras processing ([5]; 48 hr, compared with vehicle): increased amount of unprocessed Ras versus processed Ras; effect on Rap1A/K-rev processing ([6]; 48 hr, western blot): did inhibit Rap1A/K-rev processing
0.0012 µM | 0.91 µM | – | CSCC[C@H](NC(=O)CN(C(=O)[C@H](C(C)C)N(C)C(=O)[C@@H](N)CS)C1CCCCC1)C(=O)O [Semipeptoid 11, cysteinyl-(Nα-methyl)valyl-(Nα-cyclohexyl)glycyl-methionine] (H-C[NMeV][Gly(N-cHex)]M-OH) | increase of selectivity versus compound 4 ([1]; FT over GGT, versus compound 4): 11 fold; IC50 (GGT)/IC50 (FT) ([1]; selectivity ratio): 758; improvement of potency versus compound 4 (FT) ([1]; versus compound 4): 58 fold; alternative substrate (inhibitor itself farnesylated) (FT; listed as 11): no; alternative substrate (inhibitor itself farnesylated) (FT; listed as compound 11): non-farnesylated
50 µM | 155 µM | no | CSCC[C@H](NC(=O)[C@H](Cc1ccccc1)NC(=O)CN(C(=O)[C@@H](N)CS)C(C)C)C(=O)O [Semipeptoid 8, cysteinyl-(Nα-isopropyl)glycyl-phenylalanyl-methionine] (H-C[N(iPr)Gly]FM-OH) | –

Molecule | IC50 [1] | IC50 [2] | alternative substrate (inhibitor itself farnesylated) (FT) | other results
COc1ccc(CCN(CC(=O)N[C@@H](CCSC)C(=O)O)C(=O)[C@@H](NC(=O)[C@@H](N)CS)C(C)C)cc1OC [Semipeptoid 3, cysteinyl-valyl-(Nα-3,4-dimetoxyphenethyl)glycyl-methionine] (H-CV[N(3,4-(MeO)2phenethyl)Gly]M-OH) | 0.12 µM | 23 µM | no | times more potent than compound 6 (FT) ([1]; versus compound 6): 33 times
COc1ccc(CCN(CC(=O)N[C@@H](CCSC)C(=O)O)C(=O)CN(C(=O)[C@@H](N)CS)C(C)C)cc1OC [Semipeptoid 6, cysteinyl-(Nα-isopropyl)glycyl-(Nα-3,4-dimetoxyphenethyl)glycyl-methionine] (H-C[N(iPr)Gly][N(3,4-(MeO)2phenethyl)Gly]M-OH) | 4 µM | 80 µM | no | –
